Assays:
[1] = tested on: MIAPaCa-2 cells; experiment: Cell scatter assay; assay type: cell-based, human; settings: MIAPaCa-2, 1, 2, 3 μM, 36 h, compared to vehicle and parent molecule
Experimental: Cell scatter assay MIAPaCa-2 cells were seeded onto a 12 well plate at a seeding density of 500 cells/well and kept for 4-5 days, and there was the formation of scatter colonies since the cell line itself is a metastatic cell line. Accordingly, they were treated with 1 μM, 2 μM & 3 μM of compound 2, 2a, 2b, 3, 3a, 4, 4a & 4b for 36 h, and upon termination, they were washed with PBS and observed under an inverted microscope at 20× magnification (FIG. 3).

[2] = tested on: MDA-MB-231 cells; experiment: Matrigel invasion assay, MDA-MB-231; assay type: cell-based, human; settings: MDA-MB231, 0.5 μM to 5 μM
Experimental: Matrigel invasion assay: MIAPaCa-2 and MDA-MB-231 cells (1×10^6) were seeded onto matrigel coated inserts and treated with compound 2a (0.5, 1.5, 3 & 5 μM) for 36 h in 5% CO2 incubator at 37° C. The upper chamber is filled with serum-free media, and the lower half consists of 10% FBS supplemented media, thus creating a gradient of chemoattractant that facilitates the migration of cells. Upon termination, the inserts were washed with PBS, and the non-migratory cells were removed from the upper chamber by using a cotton plug. Further, the cells were fixed with methanol and stained later with 0.2% crystal violet. After drying, the inserts were observed under an inverted microscope at 20× magnification, and images were taken.
Now to study its anti-migratory and anti-metastatic role in another highly metastatic cancer cells of breast origin (MDA-MB 231) the IC50 value was determined by performing MTT assay (FIG. 6a).

[3] = tested on: γH2AX in HCT-116 cells; experiment: γH2AX immunofluorescence after combinatorial treatment of 5FU and compound 2a; assay type: cell-based; settings: HCT-116, 750 nM 5FU+3 μM 2a
Experimental: Assessment of DNA damage by combinatorial treatment of 5FU and Compound 2a. An immunofluorescence study was performed to assess the expression of γH2AX, which tends to form a complex with damaged DNA resulting in the formation of a beads-like structure when tagged with a fluorescent labelled antibody. Briefly, HCT-116 cells were seeded in 8 well chamber slide and treated with vehicle, 750 nM 5FU+3 μM 2a for 36, 48, and 60 h and 750 nM 5FU for 60 h. Following termination of drug treatment, the cells were washed with ice-cold PBS and fixed with 4% paraformaldehyde for 10 min. Subsequently, permeabilization was done by incubating the cells with 0.1% Triton X-100. Before incubating with primary antibody (anti-γH2AX mouse monoclonal antibody), the cells were blocked with 5% BSA for 1-2 h; consequently, the cells were incubated with primary antibody (1:200) for overnight at 4° C. Subsequently, the cells were washed with ice-cold PBS for five times and further incubated with secondary anti-mouse antibody (1:500) for 30 min. The slides, after thorough washing with PBS, were mounted in DAPI containing mounting media. The images were captured in Floid imaging station at 20× optical magnification, and digital zooming was done up to […].
The effect of the compound 2a in combination with DNA damaging drug 5-Fluorouracil in colon adenocarcinoma cells was studied. […]

[4] = tested on: MIAPaCa-2 cells; experiment: Phase contrast microscopy of cell morphology; assay type: cell-based, human; settings: MIAPaCa-2, 0.5 μM to 5 μM
[5] = tested on: MIAPaCa-2 cells; experiment: In-situ gelatin degradation assay, MIAPaCa-2; assay type: cell-based, human; settings: MIAPaCa-2, from 0.5 μM onwards, 36 h
Experimental: Matrix gelatin degradation assay. In-situ gelatin degradation assay is performed to detect the formation of migratory structures (invadopodia & filopodia). Briefly, glass coverslips were coated with gelatin tagged with FITC, and the coated coverslips were dipped into 70% ethanol and immersed into a 6 well plate filled with RPMI and the coverslips were kept in a CO2 incubator for 1-2 h for preconditioning. Later on, both MIAPaCa-2 and MDA-MB-231 cells were seeded onto the coverslips and kept overnight for attachment. Treatment of the compound 2a (0.5, 1.5, 3 & 5 μM) was given on the next day and continued for 36 h. Upon termination, the coverslips were washed with ice-cold PBS, and then it was fixed in 4% paraformaldehyde for 15 min and then washed with PBS. Finally, the coverslips were mounted using mounting media consist of glycerol, and the edges were sealed with nail polish. After drying, the slides were observed under a fluorescence microscope to assess a degraded area's presence. The fluorescent images were captured, and the images were further processed in Image J software (Version 1.50i) to quantify the degraded area in each field.
Now this particular derivative was further analysed for its ability to inhibit the molecular signatures of EMT. […]

[6] = tested on: MCF-7 cells; experiment: MTT cell viability assay, MCF-7; assay type: cell-based; settings: Homo sapiens, MCF7, 48 h, read-out: Cytotoxicity (IC50) MCF-7, MTT, 48 h; breast cancer cell of epithelial origin
Experimental: Cell viability assay: The cell viability was determined by the standard MTT assay method. Briefly, Panc-1, HCT-116, A549, PC3, MIAPaca-2, HT-29, MDA-MB-231, MCF7 cells, and fR2cells were seeded in 96 well tissue culture plates (Nunc) at a density of 4×10^3 cells per well and treated with varying concentrations of the test compounds in triplicates. DMSO was taken as a vehicle, and its final concentration was maintained at 0.2% in the culture medium. Doxorubicin was employed as a positive control. After 44 h of incubation, MTT dye solution was added into the medium, and cells were incubated for another 4 h at 37° C. in 5% CO2. The amount of colored formazan derivatives formed was measured by taking optical density (OD) using a microplate reader (TECAN, Infinite M200 Pro) at 570 nm, and the percentage of cell viability was calculated. The IC50 values were calculated using GraphPad Prism software (Version 5.0).

CCCCCc1cc(O[C@@H]2OC(CO)[C@@H](O)C(O)C2O)c2c(c1)OC(C)(C)[C@@H]1CCC(C)=C[C@@H]21 (stereo partly drawn) [Compound 2a, Δ^9-tetrahydrocannabinol-1-O-β-D-glucopyranoside]
cell scattering [1]: typical clumping of scatter cells | migration in Matrigel coated invasion chamber [2]: periodical loss of migration | expression of γH2AX (immunocytochemistry) [3]: increased expression | mesenchymal (fibroblastic) morphology [4]: gradual loss of mesenchymal (fibroblastic) morphology | gelatin degraded area [5]: significant loss of gelatin degraded area | IC50 [6]: 15.4 µM
